According to the NIST ThermoML archive (doi:10.1016/j.jct.2016.07.008):

Experiment: xn = mol fraction of the nth substance listed
Conditions: Liquid, Vibrating wire viscometry

CCCCO [butan-1-ol] + CC(C)CC(C)(C)C
viscosity [mPa·s], x1 = 1
Conditions	293.15 K	298.15 K	313.15 K	323.15 K	333.15 K	348.15 K	353.15 K
100 kPa	2.969	2.601	1.797	1.429	1.156	0.8579	0.7903
1000 kPa	3.001	2.622	1.813	1.44	1.172	0.8647	0.7943
5000 kPa	3.108	2.715	1.89	1.491	1.227	0.8956	0.8284
10000 kPa	3.244	2.834	1.967	1.556	1.29	0.9349	0.8637
20000 kPa	3.479	3.079	2.14	1.69	1.389	1.016	0.9473
30000 kPa	3.788	3.333	2.319	1.829	1.504	1.101	1.04
40000 kPa	4.078	3.599	2.48	1.975	1.624	1.189	1.102
50000 kPa	4.401	3.874	2.629	2.125	1.741	1.28	1.21
60000 kPa	4.74	4.16	2.852	2.281	1.867	1.375	1.295
70000 kPa	5.076	4.455	3.089	2.443	2.014	1.473	1.384
80000 kPa	5.438	4.761	3.247	2.61	2.137	1.575	1.473
100000 kPa	6.164	5.404	3.686	2.962	2.384	1.788	1.676
120000 kPa	6.979	6.087	4.192	3.335	2.633	2.015	1.857
140000 kPa	7.843	6.811	4.638	3.682	2.883	2.255	2.037

Cc1ccc(C)c(C)c1 [1,2,4-trimethylbenzene] + CCCCO
viscosity [mPa·s]
Conditions	293.15 K	313.15 K	333.15 K	353.15 K
100 kPa, x2 = 0.2999	1.004	0.7478	0.5848	0.4547
100 kPa, x2 = 0.5289	1.227	0.8685	0.6443	0.495
100 kPa, x2 = 0.7991	1.959	1.254	0.8537	0.6105
1000 kPa, x2 = 0.2999	1.019	0.7546	0.5927	0.4576
1000 kPa, x2 = 0.5289	1.228	0.8775	0.6496	0.4993
1000 kPa, x2 = 0.7991	1.977	1.271	0.8605	0.618
5000 kPa, x2 = 0.2999	1.066	0.7792	0.6096	0.4793
5000 kPa, x2 = 0.5289	1.29	0.9012	0.6816	0.5174
5000 kPa, x2 = 0.7991	2.057	1.332	0.8976	0.6396
10000 kPa, x2 = 0.2999	1.104	0.8286	0.6356	0.4978
10000 kPa, x2 = 0.5289	1.348	0.9526	0.7029	0.5381
10000 kPa, x2 = 0.7991	2.177	1.385	0.94	0.667
20000 kPa, x2 = 0.2999	1.197	0.8853	0.6805	0.5414
20000 kPa, x2 = 0.5289	1.462	1.029	0.753	0.5739
20000 kPa, x2 = 0.7991	2.381	1.506	1.026	0.7229
30000 kPa, x2 = 0.2999	1.292	0.9596	0.7326	0.577
30000 kPa, x2 = 0.5289	1.588	1.116	0.8089	0.6155
30000 kPa, x2 = 0.7991	2.563	1.645	1.107	0.7805
40000 kPa, x2 = 0.2999	1.391	1.025	0.7951	0.6166
40000 kPa, x2 = 0.5289	1.73	1.201	0.8688	0.6521
40000 kPa, x2 = 0.7991	2.757	1.759	1.197	0.8397
50000 kPa, x2 = 0.2999	1.516	1.105	0.8476	0.659
50000 kPa, x2 = 0.5289	1.87	1.293	0.9271	0.6945
50000 kPa, x2 = 0.7991	2.995	1.921	1.282	0.9004
60000 kPa, x2 = 0.2999	1.65	1.181	0.906	0.7031
60000 kPa, x2 = 0.5289	2.031	1.402	0.9904	0.7392
60000 kPa, x2 = 0.7991	3.241	2.046	1.379	0.9627
70000 kPa, x2 = 0.2999	1.804	1.271	0.9707	0.7463
70000 kPa, x2 = 0.5289	2.196	1.492	1.059	0.7855
70000 kPa, x2 = 0.7991	3.481	2.187	1.466	1.026
80000 kPa, x2 = 0.2999	1.938	1.357	1.03	0.7895
80000 kPa, x2 = 0.5289	2.401	1.612	1.131	0.8338
80000 kPa, x2 = 0.7991	3.754	2.342	1.577	1.092
100000 kPa, x2 = 0.2999	2.236	1.531	1.177	0.8968
100000 kPa, x2 = 0.5289	2.773	1.821	1.295	0.9482
100000 kPa, x2 = 0.7991	4.289	2.65	1.771	1.226
120000 kPa, x2 = 0.2999	2.578	1.753	1.308	0.997
120000 kPa, x2 = 0.5289	3.261	2.065	1.453	1.062
120000 kPa, x2 = 0.7991	4.849	2.995	1.945	1.367
140000 kPa, x2 = 0.2999	2.956	1.969	1.447	1.117
140000 kPa, x2 = 0.5289	3.719	2.367	1.615	1.194
140000 kPa, x2 = 0.7991	5.47	3.336	2.135	1.512

CCCCO [butan-1-ol] + Cc1ccc(C)c(C)c1
viscosity [mPa·s], x1 = 1
Conditions	293.15 K	298.15 K	313.15 K	323.15 K	333.15 K	348.15 K	353.15 K
100 kPa	2.969	2.601	1.797	1.429	1.156	0.8579	0.7903
1000 kPa	3.001	2.622	1.813	1.44	1.172	0.8647	0.7943
5000 kPa	3.108	2.715	1.89	1.491	1.227	0.8956	0.8284
10000 kPa	3.244	2.834	1.967	1.556	1.29	0.9349	0.8637
20000 kPa	3.479	3.079	2.14	1.69	1.389	1.016	0.9473
30000 kPa	3.788	3.333	2.319	1.829	1.504	1.101	1.04
40000 kPa	4.078	3.599	2.48	1.975	1.624	1.189	1.102
50000 kPa	4.401	3.874	2.629	2.125	1.741	1.28	1.21
60000 kPa	4.74	4.16	2.852	2.281	1.867	1.375	1.295
70000 kPa	5.076	4.455	3.089	2.443	2.014	1.473	1.384
80000 kPa	5.438	4.761	3.247	2.61	2.137	1.575	1.473
100000 kPa	6.164	5.404	3.686	2.962	2.384	1.788	1.676
120000 kPa	6.979	6.087	4.192	3.335	2.633	2.015	1.857
140000 kPa	7.843	6.811	4.638	3.682	2.883	2.255	2.037
